Patent publication US20100086546A1, “Toll-LIke Receptor 4 Deficiency and Downstream Effectors Cause Pulmonary Emphysema” (Yale University, priority 2007, published 2010)

Columns and labels:
[1] = system: Tlr4−/− mice; assay: Emphysema (lung volume, chord length, histology) in Tlr4−/− mice on antioxidant therapy; format: in vivo, mouse; details: NAC 1 g/kg or apocynin 3 mg/kg in drinking water from 3 weeks, sacrificed at 3 months
From the text: Tlr4^−/− and MyD88^−/− mice have been previously described (Zhang X., et al., 2005, J. Immunol. 175:4834-4838; Adachi O., et al., 1998, Immunity. 9:143-150; Hoshino K., et al., 1999, J. Immunol. 162:3749-3752). TLR4-deficient mouse lines C3H/HeJ and C57BL/10ScNJ and their respective controls were purchased from The Jackson Laboratory. C57BL/6J Tlr4^−/− mice were generated after greater than 10 generations of backcrossing onto a C57BL/6J background. WT littermates were used as controls. For antioxidant therapy, Tlr4^−/− mice were randomized into 3 groups at 3 weeks of age—NAC (1 g/kg body weight; Sigma-Aldrich) (apocynin (3 mg/kg body weight; Calbiochem; EMD Biosciences) (or vehicle-only drinking water—and then sacrificed at 3 months. Mice were maintained under specific pathogen-free conditions at the animal facility of Yale University School of Medicine. Animal protocols were reviewed and approved by the Animal Care and Use Committee at Yale University. Mice were anesthetized, the trachea was cannulated, and the lungs were removed and inflated with PBS at 25 cm H2O. The size of the lung was evaluated by volume displacement. Hematoxylin and eosin (H&E) or periodic acid-Schiff with diastase (PAS) staining was performed after pressure fixation with Streck solution (Streck Laboratories) in the Research Pathology Laboratory at Yale University. […]

[2] = system: Tlr4−/− mice; assay: Total antioxidant capacity in BAL and serum of Tlr4−/− mice on antioxidant therapy; format: in vivo, mouse; details: NAC 1 g/kg or apocynin 3 mg/kg in drinking water from 3 weeks, sacrificed at 3 months; for total antioxidant content in serum: serum (data not shown)
From the text: Tlr4^−/− and MyD88^−/− mice have been previously described (Zhang X., et al., 2005, J. Immunol. 175:4834-4838; Adachi O., et al., 1998, Immunity. 9:143-150; Hoshino K., et al., 1999, J. Immunol. 162:3749-3752). TLR4-deficient mouse lines C3H/HeJ and C57BL/10ScNJ and their respective controls were purchased from The Jackson Laboratory. C57BL/6J Tlr4^−/− mice were generated after greater than 10 generations of backcrossing onto a C57BL/6J background. WT littermates were used as controls. For antioxidant therapy, Tlr4^−/− mice were randomized into 3 groups at 3 weeks of age—NAC (1 g/kg body weight; Sigma-Aldrich) (apocynin (3 mg/kg body weight; Calbiochem; EMD Biosciences) (or vehicle-only drinking water—and then sacrificed at 3 months. Mice were maintained under specific pathogen-free conditions at the animal facility of Yale University School of Medicine. Animal protocols were reviewed and approved by the Animal Care and Use Committee at Yale University. Total antioxidant capacity was measured in cell-free BAL and serum using the Quantitative Assay for Total Antioxidant Potential kit (Oxis International Inc.) according to the manufacturer's instructions. […] Bathocuproine selectively forms a 2:1 complex with Cu^+, which has a maximum absorbance at 490 nm. A standard of a known uric acid concentration was used to create a calibration curve. Results are expressed as μM copper-reducing equivalents.

[3] = system: Tlr4−/− MLECs; assay: Elastolytic activity in Tlr4−/− MLECs treated with DPI, NAC or apocynin; format: cell-based, mouse; details: DPI 10 μM, NAC 100 μM, apocynin 10 μM; 24 hours
Method: MLECs were isolated by as described by Kuhlencordt et al. (Kuhlencordt P. J., et al., 2004, Am. J. Physiol. Cell Physiol. 286:C1195C1202.), with some modifications. Briefly, lungs were extracted, minced, and digested for 1 hour at 37° C. with 0.1% collagenase (Roche Diagnostics) in RPMI-1640 with 100 U/ml penicillin G and 100 μg/ml streptomycin. The digest was passed through a 100-μm cell strainer to remove undigested tissue fragments. Cells were pelleted at 200 g for 5 minutes; resuspended in MLEC medium containing 20% FBS, 40% DMEM, and 40% F12 with 100 U/ml penicillin G and 100 μg/ml streptomycin; and plated onto 0.1% gelatin-coated T75 flasks. Cells were washed after 24 hours and cultured for 2-4 days. Cells were trypsinized with 2 ml trypsin/EDTA, PBS added, and spun for 5 minutes at 200 g to remove the supernatant. Cells were resuspended in 2% FBS containing 10 μl biotin-labeled rat anti-mouse CD31 (PECAM-1) antibody (BD Biosciences—Pharmingen). After incubation on ice for 30 minutes, the cells were washed with streptavidin magnetic beads (New England Biolabs Inc.). Cells were washed with 2% FBS, resuspended in 5 ml of 2% FBS, and incubated on ice for 30 minutes. The cells were then placed on the magnet for 5 minutes, and unbound cells were removed while bound cells were resuspended in medium and plated onto a 0.1% gelatin-coated T25 flask. CD31 staining and flow cytometry confirmed that greater than 95% of the cells were endothelial cells. […]
The elastolytic activities in lung tissues, BAL, and cell lysates was determined by hydrolysis of insoluble elastin and detected spectrophotometrically using elastin-Congo red as a substrate according to the method described previously (Rust L., et al., 1994, Methods Enzymol. 235:554-562). […] The optical density of the supernatant was measured at 485 nm with a DYNEX Revelation version 3.2 spectrophotometer. The elastolytic activity was calculated as ng elastase/μg protein in the lysates according to the standard curve established by the reaction of porcine elastase and elastin-Congo red.

[4] = system: Tlr4−/− mice; assay: Reduced GSH/oxidized GSH in BAL of Tlr4−/− mice on antioxidant therapy; format: in vivo, mouse; details: NAC 1 g/kg or apocynin 3 mg/kg in drinking water, 3 months
From the text: Tlr4^−/− and MyD88^−/− mice have been previously described (Zhang X., et al., 2005, J. Immunol. 175:4834-4838; Adachi O., et al., 1998, Immunity. 9:143-150; Hoshino K., et al., 1999, J. Immunol. 162:3749-3752). TLR4-deficient mouse lines C3H/HeJ and C57BL/10ScNJ and their respective controls were purchased from The Jackson Laboratory. C57BL/6J Tlr4^−/− mice were generated after greater than 10 generations of backcrossing onto a C57BL/6J background. WT littermates were used as controls. For antioxidant therapy, Tlr4^−/− mice were randomized into 3 groups at 3 weeks of age—NAC (1 g/kg body weight; Sigma-Aldrich) (apocynin (3 mg/kg body weight; Calbiochem; EMD Biosciences) (or vehicle-only drinking water—and then sacrificed at 3 months. Mice were maintained under specific pathogen-free conditions at the animal facility of Yale University School of Medicine. Animal protocols were reviewed and approved by the Animal Care and Use Committee at Yale University. The ratio of reduced GSH to oxidized GSH was measured in cell-free BAL using GSH/GSSG-412 kit (Oxis International Inc.) according to the manufacturer's instructions.

[5] = system: Tlr4−/− mice; assay: Elastase inhibitory capacity (EIC) in Tlr4−/− mice on antioxidant therapy; format: in vivo, mouse; details: NAC 1 g/kg or apocynin 3 mg/kg in drinking water, BAL, 3 months
From the text: Tlr4^-/- and MyD88^-/- mice have been previously described (Zhang X., et al., 2005, J. Immunol. 175:4834-4838; Adachi O., et al., 1998, Immunity. 9:143-150; Hoshino K., et al., 1999, J. Immunol. 162:3749-3752). TLR4-deficient mouse lines C3H/HeJ and C57BL/10ScNJ and their respective controls were purchased from The Jackson Laboratory. C57BL/6J Tlr4^-/- mice were generated after greater than 10 generations of backcrossing onto a C57BL/6J background. WT littermates were used as controls. For antioxidant therapy, Tlr4^-/- mice were randomized into 3 groups at 3 weeks of age-NAC (1 g/kg body weight; Sigma-Aldrich) (apocynin (3 mg/kg body weight; Calbiochem; EMD Biosciences) (or vehicle-only drinking water-and then sacrificed at 3 months. Mice were maintained under specific pathogen-free conditions at the animal facility of Yale University School of Medicine. Animal protocols were reviewed and approved by the Animal Care and Use Committee at Yale University. EIC was assessed in BAL and serum using previously described methods (Klumpp T. et al., 1979, Clin. Chem. 25:969-97; […]., et al., 2001, Am. J. Respir. Crit. Care Med. 164:886-890). […] EICs against PPE (type III; Sigma-Aldrich) in BAL and serum were determined using succinyl-[…]-nitroanilide (SAPNA; Sigma-Aldrich) as the elastase substrate. EIC was expressed as percentage of enzyme activity inhibited by serum or BAL samples. […]

[6] = system: elastase- and cigarette smoke-induced emphysema; details: aerosolized; cited from earlier work

In the case of CC(=O)N[C@@H](CS)C(=O)O [NAC], the “TLR4-mediated emphysema (lung volume, mean linear chord length, histology)” value [1] is reported as “prevented TLR4-mediated emphysema”, the “total antioxidant content in BAL” value [2] is reported as “increased the total antioxidant content in BAL” and the “total antioxidant content in serum” value [2] is reported as “increased the total antioxidant content”. For the same molecule, the “elastolytic activity in Tlr4−/− MLECs” value [3] was “reversed”, the “GSH levels (reduced GSH/oxidized GSH ratio)” value [4] was “increased GSH levels” and the EIC [5] was “an increase in the EIC”.
For Hyaluronan [HA], the protection against emphysema [6] is listed as “protects against elastase- and cigarette smoke-induced emphysema”.
For c1ccc2c(c1)[I+]c1ccccc1-2 [DPI, diphenylene iodonium], the “elastolytic activity in Tlr4−/− MLECs” value [3] was “reversed to levels achieved by the broad-acting antioxidant NAC”.
For COc1cc(C(C)=O)ccc1O [apocynin], the “TLR4-mediated emphysema (lung volume, mean linear chord length, histology)” value [1] was “prevented TLR4-mediated emphysema”, the “total antioxidant content in BAL” value [2] was “increased the total antioxidant content in BAL” and the “total antioxidant content in serum” value [2] was “increased the total antioxidant content”. The “elastolytic activity in Tlr4−/− MLECs” value [3] was “reversed to levels achieved by the broad-acting antioxidant NAC”, the “GSH levels (reduced GSH/oxidized GSH ratio)” value [4] was “increased GSH levels” and the EIC [5] was “an increase in the EIC”.
